tested on: MG13-hCCR5 cells, FAP-MG2p fluorogen binding, flow cytometry MCF; experiment: FAP-tagged hCCR5 fluorogen binding interference – cell-based, FAP-tagged human CCR5, Powderset5, counter-screen for beta2AR agonist project, dose response (AID 651913)

For `CN(CC(=O)N1CCN(c2ccccn2)CC1)S(=O)(=O)c1ccc(Cl)cc1`, which EC50 is on record?
The EC50 was 10.8 nM.

Which EC50 does the source give for `O=C(C1CCCN1S(=O)(=O)c1ccc(Cl)cc1)N1CCN(c2ccccn2)CC1` (stereo not given) here?
Its EC50 is 257 nM.

With `CN(CC(=O)N1CCN(c2ccc(F)cc2)CC1)S(=O)(=O)c1ccc(Br)cc1` as the compound, how does the EC50 read?
The EC50 was 1030 nM.

`CN(CC(=O)N1CCN(c2ccc(F)cc2)CC1)S(=O)(=O)c1cc(Cl)ccc1Cl` was tested. Which EC50 did it give?
Its EC50 is 54.5 nM.

For `CCC1CCCCN1S(=O)(=O)c1ccc(NC(C)=O)cc1` (stereo not given), which EC50 is on record?
The EC50 was 455 nM.

Source: PubChem BioAssay AID651913 (NMMLSC, 2012)
